Test system: platelet function
Assay: Platelet plug formation time of arterial blood from pigs receiving platelet inhibitors (wire-in-tube device)
Format: in vivo
Method: Pigs were placed on various platelet inhibitors and then the platelet function of the pigs was monitored. Twenty-five pigs received 300 mg aspirin daily for seven days. Ten pigs received 300 mg ticlopidine (an ADP inhibitor) daily. Ten pigs received a combination of 300 mg aspirin and 300 mg ticlopidine daily. Twenty microliters of blood were drawn into the lumen of the tube at a rate of 1.0 microliter per second. The wire was 0.016 inches in diameter and the inner diameter of the tube was 0.034 inches in diameter. Blood (20 μl) was delivered via a three-way flow divider (a Touhy-Borst Connector) into a TEFLON tube 2 inches long with a stainless steel wire […] in diameter inserted through the tube and extending about three-fourths of the length of the tube. The wire was held in place at the end of the tube. The tube was coupled to a Hamilton syringe pump and to a HP blood pressure transducer for measuring the pressure in the tube. The platelet plug formation time was determined as damping of the blood pressure signal.

| SMILES | Mean platelet plug time (300 mg aspirin daily, after 3 days) | Mean platelet plug time (300 mg aspirin daily, after 7 days) | Mean platelet plug time (300 mg ticlopidine daily, after 3 days) | Mean platelet plug time (300 mg ticlopidine daily, after 7 days) |
| --- | --- | --- | --- | --- |
| CC(=O)Oc1ccccc1C(=O)O [aspirin] | 3.9 (± 0.25) minutes | 4.6 (± 0.42) minutes | – | – |
| Clc1ccccc1CN1CCc2sccc2C1 [ticlopidine] | – | – | 5.67 min | 6.21 min |
